Data as given in BigSolDB 2.1.

Cc1ccccc1C(=O)O
Conditions | solubility (mole fraction)
in DMAc, 307.65 K | 0.0781
in DMAc, 309.65 K | 0.0831
in DMAc, 311.25 K | 0.0866
in DMAc, 313.15 K | 0.0964
in DMAc, 314.35 K | 0.106
in DMAc, 317.65 K | 0.121
in DMAc, 320.25 K | 0.133
in DMAc, 321.85 K | 0.143
in DMAc, 325.25 K | 0.168
in DMAc, 327.55 K | 0.187
in DMAc, 330.25 K | 0.21
in DMAc, 332.65 K | 0.231
in DMAc, 334.35 K | 0.248
in DMAc, 336.15 K | 0.264
in DMAc, 337.35 K | 0.28
in DMAc, 338.95 K | 0.291
in DMAc, 340.35 K | 0.309
in DMAc, 341.15 K | 0.327
in DMAc, 342.05 K | 0.344
in DMAc, 343.15 K | 0.362
in DMAc, 344.35 K | 0.384
in DMF, 291.15 K | 0.329
in DMF, 295.85 K | 0.342
in DMF, 299.95 K | 0.357
in DMF, 303.75 K | 0.371
in DMF, 307.65 K | 0.39
in DMF, 311.55 K | 0.407
in DMF, 315.55 K | 0.423
in DMF, 319.45 K | 0.445
in DMF, 323.15 K | 0.461
in DMF, 327.25 K | 0.481
in DMF, 331.35 K | 0.498
in DMSO, 294.05 K | 0.497
in DMSO, 299.65 K | 0.514
in DMSO, 302.95 K | 0.523
in DMSO, 306.35 K | 0.534
in DMSO, 308.35 K | 0.537
in DMSO, 310.85 K | 0.542
in DMSO, 313.15 K | 0.548
in DMSO, 315.15 K | 0.557
in DMSO, 319.65 K | 0.57
in DMSO, 323.65 K | 0.581
in DMSO, 327.65 K | 0.591
in DMSO, 330.05 K | 0.6
in DMSO, 332.15 K | 0.608
in DMSO, 334.55 K | 0.617
in NMP, 288.95 K | 0.449
in NMP, 292.95 K | 0.455
in NMP, 296.95 K | 0.471
in NMP, 300.65 K | 0.49
in NMP, 304.65 K | 0.499
in NMP, 308.65 K | 0.51
in NMP, 312.65 K | 0.518
in NMP, 316.65 K | 0.531
in NMP, 321.35 K | 0.542
in NMP, 326.35 K | 0.559
in acetonitrile, 299.15 K | 0.314
in acetonitrile, 300.25 K | 0.316
in acetonitrile, 302.95 K | 0.323
in acetonitrile, 305.55 K | 0.329
in acetonitrile, 310.65 K | 0.34
in acetonitrile, 314.35 K | 0.346
in acetonitrile, 315.45 K | 0.35
in acetonitrile, 319.25 K | 0.36
in acetonitrile, 322.65 K | 0.369
in acetonitrile, 325.55 K | 0.378
in acetonitrile, 329.15 K | 0.386
in acetonitrile, 331.75 K | 0.393
in acetonitrile, 335.15 K | 0.401
in acetonitrile, 338.15 K | 0.409
in n-methylformamide, 294.95 K | 0.276
in n-methylformamide, 298.15 K | 0.286
in n-methylformamide, 303.65 K | 0.303
in n-methylformamide, 307.95 K | 0.32
in n-methylformamide, 312.95 K | 0.343
in n-methylformamide, 318.05 K | 0.365
in n-methylformamide, 322.35 K | 0.379
in n-methylformamide, 326.15 K | 0.392
in n-methylformamide, 330.15 K | 0.407
in n-methylformamide, 334.35 K | 0.434
in propionic acid, 296.35 K | 0.155
in propionic acid, 300.35 K | 0.179
in propionic acid, 303.65 K | 0.198
in propionic acid, 307.65 K | 0.212
in propionic acid, 311.25 K | 0.232
in propionic acid, 314.85 K | 0.253
in propionic acid, 318.35 K | 0.273
in propionic acid, 322.45 K | 0.301
in propionic acid, 326.05 K | 0.334
in propionic acid, 330.25 K | 0.363
in propionic acid, 334.15 K | 0.397

O=C(O)c1ccccc1C(=O)O
Conditions | solubility (mole fraction)
in DMAc, 295.05 K | 0.163
in DMAc, 296.15 K | 0.168
in DMAc, 298.35 K | 0.18
in DMAc, 301.15 K | 0.193
in DMAc, 302.95 K | 0.201
in DMAc, 305.05 K | 0.211
in DMAc, 306.35 K | 0.22
in DMAc, 308.15 K | 0.229
in DMAc, 309.25 K | 0.238
in DMAc, 310.65 K | 0.249
in DMAc, 312.15 K | 0.258
in DMAc, 313.15 K | 0.268
in DMAc, 314.35 K | 0.276
in DMAc, 316.05 K | 0.286
in DMAc, 316.65 K | 0.295
in DMAc, 318.15 K | 0.305
in DMAc, 319.15 K | 0.314
in DMAc, 321.15 K | 0.323
in DMAc, 323.15 K | 0.334
in DMAc, 325.05 K | 0.343
in DMAc, 326.85 K | 0.353
in DMAc, 328.15 K | 0.362
in DMAc, 329.35 K | 0.373
in DMAc, 330.35 K | 0.381
in DMAc, 331.25 K | 0.389
in DMAc, 331.95 K | 0.396
in DMAc, 333.15 K | 0.405
in DMAc, 333.95 K | 0.415
in DMAc, 334.95 K | 0.427
in DMF, 304.15 K | 0.399
in DMF, 309.15 K | 0.42
in DMF, 311.05 K | 0.426
in DMF, 314.65 K | 0.435
in DMF, 316.75 K | 0.441
in DMF, 319.15 K | 0.446
in DMF, 323.35 K | 0.464
in DMF, 326.15 K | 0.476
in DMF, 328.65 K | 0.481
in DMF, 330.75 K | 0.491
in DMF, 332.45 K | 0.499
in DMF, 335.35 K | 0.509
in DMF, 338.25 K | 0.516
in DMF, 342.15 K | 0.528
in DMSO, 291.55 K | 0.333
in DMSO, 304.25 K | 0.344
in DMSO, 306.25 K | 0.348
in DMSO, 309.65 K | 0.352
in DMSO, 313.65 K | 0.354
in DMSO, 317.25 K | 0.357
in DMSO, 321.65 K | 0.362
in DMSO, 324.15 K | 0.364
in DMSO, 328.15 K | 0.368
in DMSO, 331.35 K | 0.37
in DMSO, 335.15 K | 0.373
in DMSO, 339.65 K | 0.378
in DMSO, 342.15 K | 0.38
in NMP, 293.55 K | 0.0649
in NMP, 298.35 K | 0.0801
in NMP, 303.25 K | 0.0925
in NMP, 305.15 K | 0.0988
in NMP, 307.95 K | 0.105
in NMP, 310.15 K | 0.116
in NMP, 314.05 K | 0.128
in NMP, 319.25 K | 0.147
in NMP, 321.65 K | 0.158
in NMP, 325.15 K | 0.173
in NMP, 327.25 K | 0.184
in NMP, 330.15 K | 0.202
in NMP, 333.25 K | 0.219
in acetonitrile, 296.95 K | 0.0247
in acetonitrile, 302.05 K | 0.0282
in acetonitrile, 308.25 K | 0.0323
in acetonitrile, 314.65 K | 0.0367
in acetonitrile, 318.35 K | 0.039
in acetonitrile, 321.15 K | 0.0402
in acetonitrile, 323.35 K | 0.0417
in acetonitrile, 325.15 K | 0.0429
in acetonitrile, 327.15 K | 0.0443
in acetonitrile, 329.15 K | 0.0457
in acetonitrile, 330.95 K | 0.048
in acetonitrile, 332.75 K | 0.0491
in acetonitrile, 334.35 K | 0.0504
in n-methylformamide, 294.35 K | 0.184
in n-methylformamide, 298.95 K | 0.19
in n-methylformamide, 303.35 K | 0.196
in n-methylformamide, 307.35 K | 0.201
in n-methylformamide, 311.15 K | 0.203
in n-methylformamide, 315.35 K | 0.207
in n-methylformamide, 318.95 K | 0.211
in n-methylformamide, 323.15 K | 0.216
in n-methylformamide, 327.95 K | 0.221
in n-methylformamide, 334.35 K | 0.229
in propionic acid, 298.75 K | 0.00308
in propionic acid, 306.65 K | 0.00404
in propionic acid, 312.15 K | 0.00478
in propionic acid, 316.15 K | 0.00524
in propionic acid, 320.65 K | 0.00579
in propionic acid, 323.65 K | 0.00642
in propionic acid, 327.75 K | 0.00704
in propionic acid, 331.35 K | 0.0079
in propionic acid, 335.15 K | 0.00876
in propionic acid, 338.75 K | 0.00983
